How the values were obtained:
mice = assay: analgesia test using phenylbenzoquinone; type: in vivo; conditions: Mus musculus, ip, read-out: Analgesia test ED 50
Description: Exp. Biol. Med. 95, 729(1957).
The compounds of the invention were administered intraperitoneally.

[1] = Acute toxicity, intraperitoneal (Miller and Tainter); conditions: mouse, in vivo, ip; mice, i.p.; read-out: Acute toxicity LD 50
Description: Acute toxicity was evaluated intraperitoneally in mice according to the method described by MILLER and TAINTER in Proc. Soc. Exp. Biol. Med. 57, 261 (1944).

| Structure (SMILES) | ED50 (mice) | LD50 [1] |
| --- | --- | --- |
| Fc1ccc(C23CCCNCC(CO2)O3)cc1 (stereo not drawn) [compound 32] | 9 mg/kg | 140 mg/kg |
| N#Cc1ccc(C23CNCC(CO2)O3)cc1 (stereo not drawn) [compound 19] | 19 mg/kg | 280 mg/kg |
| c1cc(C23CNCC(CO2)O3)ccc1C1CCCCC1 (stereo not drawn) [compound 42] | 15 mg/kg | > 400 mg/kg |
| CCN1CC2COC(c3ccc(F)cc3)(C1)O2 (stereo not drawn) [compound 25] | 14 mg/kg | 280 mg/kg |
| c1ccc2cc(C34CNCC(CO3)O4)ccc2c1 (stereo not drawn) [compound 39] | 8 mg/kg | 310 mg/kg |
| c1ccc2c(C34CNCC(CO3)O4)cccc2c1 (stereo not drawn) [compound 58] | 28 mg/kg | 160 mg/kg |
| c1cncc(C23CNCC(CO2)O3)c1 (stereo not drawn) [compound 48] | 58 mg/kg | > 400 mg/kg |
| COc1ccccc1C12CNCC(CO1)O2 (stereo not drawn) [compound 14] | 8 mg/kg | 300 mg/kg |
| O=C(c1ccccc1)c1cccc(C23CNCC(CO2)O3)c1 (stereo not drawn) [compound 59] | 13.5 mg/kg | 155 mg/kg |
| c1ccc(CN2CC3COC(C4CCCCC4)(C2)O3)cc1 (stereo not drawn) [compound 30] | 26 mg/kg | > 400 mg/kg |
| O=[N+]([O-])c1ccc(C23CNCC(CO2)O3)cc1 (stereo not drawn) [compound 21] | 10 mg/kg | 290 mg/kg |
| CC(C)(C)C12CNCC(CO1)O2 (stereo not drawn) [Code number 1] | 18 mg/kg | 400 mg/kg |
| Clc1cccc(C23CNCC(CO2)O3)c1 (stereo not drawn) [Code number 9] | 10 mg/kg | 240 mg/kg |
| O=C(O)c1ccc(C23CNCC(CO2)O3)cc1 (stereo not drawn) [compound 54] | 38 mg/kg | > 400 mg/kg |
| Clc1ccc(C23CNCC(CO2)O3)cc1Cl (stereo not drawn) [compound 23] | 10 mg/kg | 300 mg/kg |
| c1csc(C23CNCC(CO2)O3)c1 (stereo not drawn) [Code number 4] | 24 mg/kg | > 400 mg/kg |
| COc1ccc2cc(C34CNCC(CO3)O4)ccc2c1 (stereo not drawn) [compound 56] | 21 mg/kg | 240 mg/kg |
| Fc1ccc(C23CNCC(CO2)O3)cc1 (stereo not drawn) [Code number 7, 5-parafluorophenyl-6,8-dioxa-3-azabicyclo [3.2.1] octane meleate] | 10 mg/kg | 300 mg/kg |
| C1C2CC3CC1CC(C14CNCC(CO1)O4)(C2)C3 (stereo not drawn) [compound 36] | 30 mg/kg | 185 mg/kg |
| c1ccc(-c2ccc(C34CNCC(CO3)O4)cc2)cc1 (stereo not drawn) [compound 40] | 24 mg/kg | 310 mg/kg |
| CC(=O)Nc1ccc(C23CNCC(CO2)O3)cc1 (stereo not drawn) [compound 44] | 7 mg/kg | 380 mg/kg |

From patent publication US4463004A, “Dioxazabicyclic derivatives” (Delalande S.A., priority 1981, dated 1984)
